Measured values from US7223779B2, “Azasugar derivative and drug containing the same as the active ingredient” (Carna Biosciences Inc., priority 2002, dated 2007).

How the values were obtained:
[1] = tested on: epidermal hyperplasia in mice induced by the application of TPA; test: TPA-induced epidermal hyperplasia in mouse dorsal skin; assay type: in vivo; settings: male BALB/c mice; applied to skin 5 min, 24 h and 48 h after TPA; doses 1, 10, 100 μg; skin excised at 72 h; FIG. 1
Description: After backs of male BALB/c mice were shaved, 10 μL of a TPA-acetone solution (0.1 mM) was applied to the dorsal skin surface in an area of about 1 cm^2. In the medicine-treated group, a volume of 20 μL of a solution prepared by dissolving the test compound in acetone was applied to the same area 5 minutes, 24 hours and 48 hours after TPA application. In the non-treated group, only TPA was applied. In the control group, acetone was applied instead of the TPA-acetone solution.
The mice were sacrificed and the skin tissues were excised 72 hours after TPA application. Then the tissues were fixed with formalin, the vertical sections including the center of the TPA- or acetone-treated area were prepared and embedded in paraffin according to the conventional method. And they were stained by hematoxylin-eosin after removing paraffin. The epidermal thickness was measured using a microscope.
In FIG. 1, the numeral in the ordinate represents the epidermal thickness (μm). A bar graph of TPA (−) represents the epidermal thickness of the control group and a bar graph of TPA represents the epidermal thickness of the non-treated group. The respective bar graphs of 1, 10 and 100 denote the epidermal thickness of the group wherein the test compound is administered at a dose of 1, 10 and 100 (μg/wound) of each test compound. […]

[2] = tested on: re-epithelialization of keratinocytes, mouse skin wound model; test: Mouse skin wound healing model, re-epithelialization of keratinocytes; assay type: in vivo; settings: male BALB/c mice; 6 mm full-thickness wounds; applied once a day; assessed eight days after operation; FIG. 2
Description: Wound healing model was prepared in accordance with the method described by Tsuboi, et al. (J. Dermatol., 19, 673–675 (1992)). After backs of male BALB/c mice were shaved, two full-thickness round wounds (6 mm diameter) were prepared on the back of each mouse using a punch biopsy instrument. In medicine-treated group, immediately after the operation, a test compound suspended in 0.01M phosphate-buffered saline containing 1.5% sodium carboxymethyl cellulose (vehicle) was applied to each wound in a volume of 50 μL/wound. From the following day, the compound was repeatedly applied to each wound once a day for 7 days. In the control group, vehicle solution only was applied in the same manner. Eight days after the operation, mice were sacrificed and skin tissues containing wound area were removed. The tissues were fixed with a 10% neutral buffer formalin solution for one day and embedded in paraffin according to the conventional method. The cross-sections were made perpendicularly to the anterior-posterior axis. Keratinocytes in the specimen were stained by immuno histochemical staining method with an anti-keratin antibody after removing paraffin. Measurements of wound size (mm) and re-epithelialization of keratinocytes (mm) were performed by using an image-analyzing software. Re-epithelialization rate(%) of keratinocytes was calculated as follows with regard to each animal. […]

## O=C(NO)[C@H]1[C@@H](O)[C@H](O)[C@@H](O)CN1S(=O)(=O)c1ccc(Oc2ccccc2)cc1 [Compound c, (2R,3R,4R,5S)-3,4,5-trihydroxy-1-(4′-phenoxybenzenesulfonyl)-piperidine-2-carboxylic Acid Hydroxamide]
[1]
  hyperplasia inhibitory activity (epidermal thickness): hyperplasia inhibitory activity
[2]
  re-epithelialization rate (%) of keratinocytes inhibitory activity: inhibitory activity
